According to article PMC6941952, “A homogeneous bioluminescent immunoassay to probe cellular signaling pathway regulation” (Communications Biology, 2020):
Where “and” joins values, the source holds several entries; their conditions need not be identical. Equal values may be shown once.

Test system: STAT3 Phospho-Tyr705
Experiment: NanoBiT pSTAT3 cell-based immunoassay in A431 cells
Parameters: species or system human
Settings: for P-STAT3 (% compared to no inhibitor) Average / P-STAT3 (% compared to no inhibitor) / Raw data P-STAT3 / Subtract reagent background P-STAT3 / Average P-STAT3 (% compared to no inhibitor): IL-6 10 ng/ml; for P-STAT3 (% compared to no inhibitor): replicate
Description: Prior to NanoBiT Cell-Based Immunoassay, 50,000 cells were seeded in 160 µl of complete growth media per well of a 96-well plate and incubated overnight. […] If necessary, the cell culture media were replaced with serum-free media after the cells were stably adherent on the plate and incubated overnight. To treat cells with activators or inhibitors, medium was changed to 30 µl of medium containing inhibitors. If activation of a specific pathway is needed, the cells were stimulated with 10 µl of medium containing activators. To lyse the cells, 10 µl of lysis buffer containing 0.1% digitonin diluted in 1X immunoassay buffer with protease and phosphatase inhibitors was added and the plates were mixed vigorously for 20 min. Then, 50 µl of an antibody mix containing two primary antibodies against the target protein and NanoBiT detecting antibodies (0.3 µl each per well), diluted in 1X immunoassay buffer was added to the lysates. The plates were incubated at 23 °C for 90 min, followed by the addition of 25 µl of Nano-Glo® reagent consisting of Nano-Glo® Luciferase Assay Substrate mixed with 1X immunoassay buffer. Luminescence was measured using a plate-reading luminometer.
Single dose or dose response inhibitor treatments were performed prior to activation of the pathways as follows. For IκBα, the cells were treated in 30 µl medium with IKK16 or MG132 for 60 min before the addition of 10 µl of DMEM containing appropriate concentration of TNFα. To measure phosphorylation of AKT or STAT3, the corresponding NanoBiT immunoassays were developed with MCF-7 or A431 cells, respectively, according the same scheme used to develop the IκBα assay using the primary antibodies for AKT and STAT3 described in the reagents section. […] Treatment with LY294002 was performed in 30 µl medium and cells were incubated for 60 min before the addition of 1 µM Insulin. To measure STAT3 phosphorylation, A431 cells were incubated overnight in DMEM medium without serum. […] After addition of the stimulators, the cells were incubated for additional times as follows. IκBα phosphorylation and degradation analyses required both time courses and single time points as described in figures. […] The NanoBiT immunoassay protocol was followed as described above.
All 96-well assay plates were read using a GloMax® 96 Microplate Luminometer from Promega. The instrument was set to 0.5 s integration time. In order to obtain net change of signal, the reagent background values (signal from the well containing all reagent except primary antibodies) were subtracted from the sample values. To plot and analyze the data, Microsoft Excel and GraphPad Prism® Software were used. IC50 values were determined by using a nonlinear regression fit to a sigmoidal dose response (variable slope).

[1] = A431 cells, pretreated 1 h, IL-6 10 ng per ml 30 min
[2] = Actemra 7.62939e-5 ug/ml, A431, Fig 6e
[3] = Actemra 0.000305176 ug/ml, A431, Fig 6e
[4] = Actemra 0.0012207 ug/ml, A431, Fig 6e
[5] = Actemra 0.00488281 ug/ml, A431, Fig 6e
[6] = Actemra 0.0195312 ug/ml, A431, Fig 6e
[7] = Actemra 0.078125 ug/ml, A431, Fig 6e
[8] = Actemra 0.3125 ug/ml, A431, Fig 6e

Compound: N#CC[C@H](C1CCCC1)n1cc(-c2ncnc3[nH]ccc23)cn1 [Ruxolitinib]
- IL-6-induced increase in STAT3 phosphorylation (A431 cells, 1 µM 1 h, IL-6 10 ng per ml 30 min): suppressed
- P-STAT3 (% compared to no inhibitor) Average (inhibitor 0.0190735 nM): 95.1%
- P-STAT3 (% compared to no inhibitor) Average (inhibitor 0.038147 nM): 97.5%
- P-STAT3 (% compared to no inhibitor) Average (inhibitor 0.0762939 nM): 97.0%
- P-STAT3 (% compared to no inhibitor) Average (inhibitor 0.152588 nM): 107.8%
- P-STAT3 (% compared to no inhibitor) Average (inhibitor 0.305176 nM): 102.4%
- P-STAT3 (% compared to no inhibitor) Average (inhibitor 0.610352 nM): 97.6%
- P-STAT3 (% compared to no inhibitor) Average (inhibitor 1.2207 nM): 97.9%
- P-STAT3 (% compared to no inhibitor) Average (inhibitor 2.44141 nM): 96.4%
- P-STAT3 (% compared to no inhibitor) Average (inhibitor 4.88281 nM): 89.5%
- P-STAT3 (% compared to no inhibitor) Average (inhibitor 9.76562 nM): 75.7%
- P-STAT3 (% compared to no inhibitor) Average (inhibitor 19.5312 nM): 80.7%
- P-STAT3 (% compared to no inhibitor) Average (inhibitor 39.0625 nM): 62.0%
- P-STAT3 (% compared to no inhibitor) Average (inhibitor 78.125 nM): 39.8%
- P-STAT3 (% compared to no inhibitor) Average (inhibitor 156.25 nM): 26.0%
- P-STAT3 (% compared to no inhibitor) Average (inhibitor 312.5 nM): 16.9%
- P-STAT3 (% compared to no inhibitor) Average (inhibitor 625 nM): 16.7%
- P-STAT3 (% compared to no inhibitor) Average (inhibitor 2500 nM): 13.8%
- P-STAT3 (% compared to no inhibitor) Average (inhibitor 5000 nM): 15.3%
- P-STAT3 (% compared to no inhibitor) Average (inhibitor 10000 nM): 10.3%
- P-STAT3 (% compared to no inhibitor) Average (inhibitor […]): 12.9%
- P-STAT3 (% compared to no inhibitor) (inhibitor 0.0190735 nM): 96.2% and 96.8% and 92.2%
- P-STAT3 (% compared to no inhibitor) (inhibitor 0.038147 nM): 95.4% and 106.7% and 90.5%
- P-STAT3 (% compared to no inhibitor) (inhibitor 0.0762939 nM): 96.2% and 100.5% and 94.3%
- P-STAT3 (% compared to no inhibitor) (inhibitor 0.152588 nM): 95.8% and 119.8% and 107.8%
- P-STAT3 (% compared to no inhibitor) (inhibitor 0.305176 nM): 98.2% and 103.8% and 105.3%
- P-STAT3 (% compared to no inhibitor) (inhibitor 0.610352 nM): 90.4% and 95.8% and 106.7%
- P-STAT3 (% compared to no inhibitor) (inhibitor 1.2207 nM): 97.3% and 105.4% and 90.9%
- P-STAT3 (% compared to no inhibitor) (inhibitor 2.44141 nM): 104.8% and 99.5% and 84.9%
- P-STAT3 (% compared to no inhibitor) (inhibitor 4.88281 nM): 81.2% and 88.5% and 98.7%
- P-STAT3 (% compared to no inhibitor) (inhibitor 9.76562 nM): 52.6% and 91.9% and 82.5%
- P-STAT3 (% compared to no inhibitor) (inhibitor 19.5312 nM): 89.5% and 78.3% and 74.3%
- P-STAT3 (% compared to no inhibitor) (inhibitor 39.0625 nM): 59.3% and 71.3% and 55.5%
- P-STAT3 (% compared to no inhibitor) (inhibitor 78.125 nM): 39.9% and 42.8% and 36.6%
- P-STAT3 (% compared to no inhibitor) (inhibitor 156.25 nM): 30.4% and 24.5% and 23.1%
- P-STAT3 (% compared to no inhibitor) (inhibitor 312.5 nM): 16.4% and 18.5% and 15.8%
- P-STAT3 (% compared to no inhibitor) (inhibitor 625 nM): 19.9% and 15.7% and 14.5%
- P-STAT3 (% compared to no inhibitor) (inhibitor 2500 nM): 12.6% and 13.9% and 14.8%
- P-STAT3 (% compared to no inhibitor) (inhibitor 5000 nM): 13.4% and 17.3% and 15.2%
- P-STAT3 (% compared to no inhibitor) (inhibitor 10000 nM): 6.2% and 9.4% and 15.3%

Compound: Tocilizumab: humanized monoclonal antibody against the IL-6 receptor, approved immunosuppressive drug
- IC50, inhibition of Phospho-STAT3 [1]: 0.16 µg/mL
- STAT3 phosphorylation / JAK2-STAT3 pathway activation, dose response [1]: inhibited
- Raw data P-STAT3 [2]: 317500 and 271600 and 267300
- Subtract reagent background P-STAT3 [2]: 173175 and 168875 and 219075
- P-STAT3 (% compared to no inhibitor) [2]: 117.6%
- Raw data P-STAT3 [3]: 341900 and 251000 and 260600
- Subtract reagent background P-STAT3 [3]: 155645 and 165245 and 246545
- P-STAT3 (% compared to no inhibitor) [3]: 91.7% and 120.7%
- Raw data P-STAT3 [4]: 299200 and 250300 and 276700
- Subtract reagent background P-STAT3 [4]: 153990 and 180390 and 202890
- Average P-STAT3 (% compared to no inhibitor) [5]: 74.6%
- Raw data P-STAT3 [5]: 245000 and 216200 and 217700
- Subtract reagent background P-STAT3 [5]: 121185 and 122685 and 149985
- P-STAT3 (% compared to no inhibitor) [5]: 82.3% and 68.1% and 73.4%
- Average P-STAT3 (% compared to no inhibitor) [6]: 41.8%
- Raw data P-STAT3 [6]: 170000 and 159800 and 165700
- Subtract reagent background P-STAT3 [6]: 67955 and 73855 and 78155
- P-STAT3 (% compared to no inhibitor) [6]: 46.2% and 41.0% and 38.2%
- Average P-STAT3 (% compared to no inhibitor) [7]: 19.4%
- Raw data P-STAT3 [7]: 138700 and 129600 and 119000
- Subtract reagent background P-STAT3 [7]: 34580 and 23980 and 43680
- P-STAT3 (% compared to no inhibitor) [7]: 23.5% and 13.3% and 21.4%
- Average P-STAT3 (% compared to no inhibitor) [8]: 9.3%
- Raw data P-STAT3 [8]: 116800 and 110300 and 113700
- Subtract reagent background P-STAT3 [8]: 13270 and 16670 and 19770
- P-STAT3 (% compared to no inhibitor) [8]: 9.0% and 9.3% and 9.7%
- Average P-STAT3 (% compared to no inhibitor) (Actemra 5 ug/ml, A431, Fig 6e): 7.9%
- Raw data P-STAT3 (Actemra 5 ug/ml, A431, Fig 6e): 110700 and 107600 and 97720
- P-STAT3 (% compared to no inhibitor) (Actemra 5 ug/ml, A431, Fig 6e): 10.8% and 3.4% and 9.3%
- Average P-STAT3 (% compared to no inhibitor) (Actemra 20 ug/ml, A431, Fig 6e): 7.7%
- Raw data P-STAT3 (Actemra 20 ug/ml, A431, Fig 6e): 106200 and 97590
- P-STAT3 (% compared to no inhibitor) (Actemra 20 ug/ml, A431, Fig 6e): 11.0% and 4.2% and 7.9%
- Average P-STAT3 (% compared to no inhibitor) (Actemra […], A431, Fig 6e): 7.7%
